The test system of this data set is CCRIS mutagenicity, Ames/micronucleus/aberration tests. In words: CCRIS mutagenicity studies.
Setting [1] is: Test System: AMES SALMONELLA TYPHIMURIUM, Strain/Indicator: TA98, Metabolic Activation: HAMSTER, LIVER, S-9, AROCLOR 1254, Method: STANDARD PLATE.
The mark [2] stands for this setting: Test System: AMES SALMONELLA TYPHIMURIUM, Strain/Indicator: TA98, Metabolic Activation: NONE, Method: PREINCUBATION
Setting [3] is: Test System: AMES SALMONELLA TYPHIMURIUM, Strain/Indicator: TA100, Metabolic Activation: NONE, Method: PREINCUBATION
Where [4] appears, read: Test System: MOUSE LYMPHOMA, Strain/Indicator: L5178Y (TK+/TK-), Metabolic Activation: RAT, LIVER, S-9, AROCLOR 1254, Method: SUSPENSION/PLATE.
Where [5] appears, read: Test System: AMES SALMONELLA TYPHIMURIUM, Strain/Indicator: TA98, Metabolic Activation: NONE, Method: STANDARD PLATE.
Where [6] appears, read: Test System: AMES SALMONELLA TYPHIMURIUM, Strain/Indicator: TA100, Metabolic Activation: NONE, Method: STANDARD PLATE.

Activity calls are given as the source filed them. How the calls were made is not given here.

In PubChem BioAssay AID1259407 (Chemical Carcinogenesis Research Information System (CCRIS), 2018) one finds mutagenic call data, which are given here for 6 compounds.

For the compound `CCN(Cc1cccc(S(=O)(=O)O)c1)c1ccc(C(=C2C=CC(=[N+](CC)Cc3cccc(S(=O)(=O)O)c3)C=C2)c2ccccc2S(=O)(=O)[O-])cc1`, the mutagenic call is “inactive; negative” (End Point: IN VIVO MICRONUCLEUS, Test System: BONE MARROW POLYCHROMATIC ERYTHROCYTES, Species: MOUSE, Strain/Sex: DDY/MALE, Route: IP); “active; positive” under setting [1]; “active; positive” (Test System: AMES SALMONELLA TYPHIMURIUM, Strain/Indicator: TA98, Metabolic Activation: HAMSTER, LIVER, S-9, Method: PREINCUBATION (PRIVAL METHOD)); “inactive; negative” under setting [2]; “inactive; negative” (Test System: AMES SALMONELLA TYPHIMURIUM, Strain/Indicator: TA98, Metabolic Activation: S-9, Method: PREINCUBATION); “active; positive” (Test System: AMES SALMONELLA TYPHIMURIUM, Strain/Indicator: TA100, Metabolic Activation: HAMSTER, LIVER, S-9, Method: PREINCUBATION (PRIVAL METHOD)). Also, the mutagenic call is, setting by setting: under setting [3], “inactive; negative”; (Test System: AMES SALMONELLA TYPHIMURIUM, Strain/Indicator: TA100, Metabolic Activation: S-9, Method: PREINCUBATION) “inactive; negative”; (Test System: AMES SALMONELLA TYPHIMURIUM, Strain/Indicator: TA1538, Metabolic Activation: RAT, LIVER, S-9, AROCLOR 1254, HAMSTER, LIVER, S-9, AROCLOR 1254, Method: STANDARD PLATE) “active; positive”; under setting [4], “active; positive. reevaluation of results: positive”; (Test System: Mouse lymphoma, Strain/Indicator: L5178Y (tk+/tk-), Metabolic Activation: None, Method: Suspension/plate) “inactive; negative”.
For `c1ccc2c(c1)ccc1c2ccc2ccc3ccccc3c21`, the mutagenic call is, setting by setting: (Test System: AMES SALMONELLA TYPHIMURIUM, Strain/Indicator: TA100, Metabolic Activation: RAT, LIVER, MICROSOMES, AROCLOR 1254, Method: STANDARD PLATE) “active; positive”; (Test System: AMES SALMONELLA TYPHIMURIUM, Strain/Indicator: TA100, Metabolic Activation: RAT, LIVER, MICROSOMES, BENZO[C]CHRYSENE, Method: STANDARD PLATE) “inactive; negative”; (Test System: AMES SALMONELLA TYPHIMURIUM, Strain/Indicator: TA100, Metabolic Activation: RAT, LIVER, MICROSOMES, Method: STANDARD PLATE) “inactive; negative”.
As for `CC(=O)OCc1c2ccccc2cc2ccc3ccccc3c12`, the mutagenic call under setting [5] is “active; positive” and the mutagenic call under setting [6] is “active; positive”.
Turning to `CCCCC(CC)COC(=O)c1cccc(C(=O)OCC(CC)CCCC)c1` (configuration not stated), the mutagenic call was “inactive; negative” (Test System: AMES SALMONELLA TYPHIMURIUM, Strain/Indicator: TA97, Metabolic Activation: HAMSTER, LIVER, S-9, AROCLOR 1254 (10 OR 30%), Method: PREINCUBATION); “inactive; negative” (Test System: AMES SALMONELLA TYPHIMURIUM, Strain/Indicator: TA97, Metabolic Activation: NONE, Method: PREINCUBATION); “inactive; negative” (Test System: AMES SALMONELLA TYPHIMURIUM, Strain/Indicator: TA97, Metabolic Activation: RAT, LIVER, S-9, AROCLOR 1254 (10 OR 30%), Method: PREINCUBATION); “inactive; negative” (Test System: AMES SALMONELLA TYPHIMURIUM, Strain/Indicator: TA98, Metabolic Activation: HAMSTER, LIVER, S-9, AROCLOR 1254 (10 OR 30%), Method: PREINCUBATION); “inactive; negative” under setting [2]; “inactive; negative” (Test System: AMES SALMONELLA TYPHIMURIUM, Strain/Indicator: TA98, Metabolic Activation: RAT, LIVER, S-9, AROCLOR 1254 (10 OR 30%), Method: PREINCUBATION). The mutagenic call was “inactive; negative” (Test System: AMES SALMONELLA TYPHIMURIUM, Strain/Indicator: TA100, Metabolic Activation: HAMSTER, LIVER, S-9, AROCLOR 1254 (10 OR 30%), Method: PREINCUBATION); “inactive; negative” under setting [3]; “inactive; negative” (Test System: AMES SALMONELLA TYPHIMURIUM, Strain/Indicator: TA100, Metabolic Activation: RAT, LIVER, S-9, AROCLOR 1254 (10 OR 30%), Method: PREINCUBATION); “inactive; negative” (Test System: AMES SALMONELLA TYPHIMURIUM, Strain/Indicator: TA1535, Metabolic Activation: HAMSTER, LIVER, S-9, AROCLOR 1254 (10 OR 30%), Method: PREINCUBATION); “inactive; negative” (Test System: AMES SALMONELLA TYPHIMURIUM, Strain/Indicator: TA1535, Metabolic Activation: NONE, Method: PREINCUBATION); “inactive; negative” (Test System: AMES SALMONELLA TYPHIMURIUM, Strain/Indicator: TA1535, Metabolic Activation: RAT, LIVER, S-9, AROCLOR 1254 (10 OR 30%), Method: PREINCUBATION).
Consider `C1=Cc2c3cc4ccccc4cc3cc3cccc1c23`, for which the mutagenic call was “active; positive” under setting [5] and “active; positive” (Test System: AMES SALMONELLA TYPHIMURIUM, Strain/Indicator: TA98, Metabolic Activation: RAT, LIVER, S-9, AROCLOR 1254 (0.127 OR 1.27 MG S-9 PROTEIN), Method: STANDARD PLATE).
As to `Nc1nc2cc(Cl)c(Cl)cc2s1`, the mutagenic call under setting [1] is “inactive; negative”; the mutagenic call under setting [5] was “inactive; negative”; the mutagenic call (Test System: AMES SALMONELLA TYPHIMURIUM, Strain/Indicator: TA98, Metabolic Activation: RAT, LIVER, S-9, AROCLOR 1254, Method: STANDARD PLATE) is “inactive; negative”; the mutagenic call (Test System: AMES SALMONELLA TYPHIMURIUM, Strain/Indicator: TA100, Metabolic Activation: HAMSTER, LIVER, S-9, AROCLOR 1254, Method: STANDARD PLATE) was “inactive; negative”; the mutagenic call under setting [6] is “inactive; negative”; the mutagenic call (Test System: AMES SALMONELLA TYPHIMURIUM, Strain/Indicator: TA100, Metabolic Activation: RAT, LIVER, S-9, AROCLOR 1254, Method: STANDARD PLATE) was “inactive; negative”. For the same compound, the mutagenic call (Test System: AMES SALMONELLA TYPHIMURIUM, Strain/Indicator: TA1535, Metabolic Activation: HAMSTER, LIVER, S-9, AROCLOR 1254, Method: STANDARD PLATE) is “inactive; negative”; the mutagenic call (Test System: AMES SALMONELLA TYPHIMURIUM, Strain/Indicator: TA1535, Metabolic Activation: NONE, Method: STANDARD PLATE) is “inactive; negative”; the mutagenic call (Test System: AMES SALMONELLA TYPHIMURIUM, Strain/Indicator: TA1535, Metabolic Activation: RAT, LIVER, S-9, AROCLOR 1254, Method: STANDARD PLATE) is “inactive; negative”; the mutagenic call (Test System: AMES SALMONELLA TYPHIMURIUM, Strain/Indicator: TA1537, Metabolic Activation: HAMSTER, LIVER, S-9, AROCLOR 1254, Method: STANDARD PLATE) is “inactive; negative”; the mutagenic call (Test System: AMES SALMONELLA TYPHIMURIUM, Strain/Indicator: TA1537, Metabolic Activation: NONE, Method: STANDARD PLATE) is “inactive; negative”; the mutagenic call (Test System: AMES SALMONELLA TYPHIMURIUM, Strain/Indicator: TA1537, Metabolic Activation: RAT, LIVER, S-9, AROCLOR 1254, Method: STANDARD PLATE) was “inactive; negative”. Besides, the mutagenic call is, setting by setting: (Test System: AMES SALMONELLA TYPHIMURIUM, Strain/Indicator: TA1538, Metabolic Activation: HAMSTER, LIVER, S-9, AROCLOR 1254, Method: STANDARD PLATE) “inactive; negative”; (Test System: AMES SALMONELLA TYPHIMURIUM, Strain/Indicator: TA1538, Metabolic Activation: NONE, Method: STANDARD PLATE) “inactive; negative”; (Test System: AMES SALMONELLA TYPHIMURIUM, Strain/Indicator: TA1538, Metabolic Activation: RAT, LIVER, S-9, AROCLOR 1254, Method: STANDARD PLATE) “inactive; negative”; (Test System: MOUSE LYMPHOMA, Strain/Indicator: L5178Y (TK+/TK-), Metabolic Activation: NONE, Method: SUSPENSION/PLATE) “inactive; negative. reevaluation of results: negative”; under setting [4], “inactive; negative. reevaluation of results: negative”.
